Like-named read-outs stand apart in the source and are kept apart here.
What was measured:
[1] = test system: MCF-7 (human breast cancer); experiment: Cell proliferative assay (MTT), MCF-7; type: cell-based; conditions: MCF-7 cells, read-out: Proliferative Inhibition (IC50, µM) MCF-7
Description: (§1) The anti-proliferative activities of synthesized compounds against HeLa, Hep-G2 and MCF-7 cells were evaluated by MTT assay. HeLa cells were grown to log phase in RPMI 1640 medium supplemented with 10% fetal bovine serum. Hep-G2 and MCF-7 cells were grown to log phase in DMEM medium supplemented with 10% fetal bovine serum. After diluting to […] with the complete medium, 100 µL of the obtained cell suspension was added to each well of 96-well culture plates. The subsequent incubation was permitted at 37 °C, 5% CO2 atmosphere for 48 h before the anti-proliferative assessments. Tested samples at pre-set concentrations were added to 6 wells. Before the anti-proliferative assessments, 20 µL of PBS containing 2.5 mg∙mL^−1 of MTT was added to each well. Four h later, 100 µL extraction solution (DMSO) was added to each well and the optical density was measured at a wavelength of 570 nm on an ELISA microplate reader.

[2] = target: T1, c-MET (Homo sapiens, UniProt P08581); experiment: In vitro kinase assay (HTScan MET Kinase Assay Kit, colorimetric ELISA); type: biochemical; conditions: ATP 10 µM; three independent determinations; read-out: Enzymatic Inhibition (IC50, µM) c-MET
T1 construct: purchased Cell Signaling Technology, Inc
T1 sequence (P08581 25-1390): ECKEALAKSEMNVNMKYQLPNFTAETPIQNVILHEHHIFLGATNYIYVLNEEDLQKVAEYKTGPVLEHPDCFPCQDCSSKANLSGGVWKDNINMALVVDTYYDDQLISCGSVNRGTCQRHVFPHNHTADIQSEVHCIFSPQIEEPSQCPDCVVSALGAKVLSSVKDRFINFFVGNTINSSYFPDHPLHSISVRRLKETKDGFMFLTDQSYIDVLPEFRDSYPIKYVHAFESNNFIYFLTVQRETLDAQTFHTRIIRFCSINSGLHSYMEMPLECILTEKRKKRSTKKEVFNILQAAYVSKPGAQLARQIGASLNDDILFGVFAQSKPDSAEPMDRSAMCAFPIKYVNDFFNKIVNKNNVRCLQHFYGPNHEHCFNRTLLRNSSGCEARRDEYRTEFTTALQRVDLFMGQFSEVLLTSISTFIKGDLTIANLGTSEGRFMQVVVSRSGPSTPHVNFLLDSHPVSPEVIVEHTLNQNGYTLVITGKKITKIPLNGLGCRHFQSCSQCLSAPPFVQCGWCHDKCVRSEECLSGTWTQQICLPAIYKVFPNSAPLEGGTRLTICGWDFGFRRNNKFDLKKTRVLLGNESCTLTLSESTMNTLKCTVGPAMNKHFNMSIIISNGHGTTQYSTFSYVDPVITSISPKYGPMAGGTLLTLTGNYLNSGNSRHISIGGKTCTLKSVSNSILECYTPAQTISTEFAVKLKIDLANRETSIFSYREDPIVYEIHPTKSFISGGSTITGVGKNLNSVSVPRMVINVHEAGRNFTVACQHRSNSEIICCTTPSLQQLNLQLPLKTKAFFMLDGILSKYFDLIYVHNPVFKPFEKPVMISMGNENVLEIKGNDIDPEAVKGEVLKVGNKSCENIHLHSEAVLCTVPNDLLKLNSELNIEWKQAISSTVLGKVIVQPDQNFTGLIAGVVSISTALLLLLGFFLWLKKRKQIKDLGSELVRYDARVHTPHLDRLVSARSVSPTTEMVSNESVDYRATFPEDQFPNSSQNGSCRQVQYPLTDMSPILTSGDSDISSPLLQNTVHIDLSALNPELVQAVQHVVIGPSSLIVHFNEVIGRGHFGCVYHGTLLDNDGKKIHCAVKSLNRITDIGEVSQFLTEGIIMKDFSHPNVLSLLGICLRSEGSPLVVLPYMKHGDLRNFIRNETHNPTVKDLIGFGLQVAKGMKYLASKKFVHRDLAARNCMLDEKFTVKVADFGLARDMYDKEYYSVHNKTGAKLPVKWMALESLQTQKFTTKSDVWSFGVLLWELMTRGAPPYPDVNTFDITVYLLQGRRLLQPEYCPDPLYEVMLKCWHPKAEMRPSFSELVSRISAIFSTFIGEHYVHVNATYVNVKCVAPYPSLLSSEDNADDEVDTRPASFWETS
Description: In vitro kinase inhibitory ability was determined using HTScan MET Kinase Assay Kit, HTScan VEGF Receptor 2 Kinase Assay Kit, HTScan c-Kit Kinase Assay Kit, HTScan PDGF Receptor β Kinase Assay Kit and HTScan EGFR Kinase Assay Kit(purchased from Cell Signaling Technology, Inc. Danvers, MA, USA) by colorimetric ELISA assay according to the manufacturer’s instructions. Briefly, reaction cocktail containing recombinant human MET kinase or other kinases were incubated with various concentrations of tested compounds or DMSO (0.1%) for 5 min at room temperature, and then ATP/substrate peptide cocktail was added to the pre-incubated reaction cocktail. After incubation at room temperature for 30 min, the reaction was stopped and transferred to a 96-wellstreptavidin-coated plate, and incubated for 1 h at room temperature. Primary antibody (phosphorylated tyrosine monoclonal antibody (pTyr-100), 1:1000 in PBS/T with 1% bovine serum albumin (BSA)) was added into per well until the wells were washed thrice with PBS/T. After incubated at room temperature for 1 h, phosphorylation of the substrate was monitored with HRP-labeled anti-mouse IgG antibody (1:500 in PBS/T with 1% BSA), followed by a chromogenic reaction. Finally, the kinase assay was detected at 450 nm with microplate reader. The reaction processed with only DMSO (0.1%) served as a vehicle control. […] The kinase assay was performed thrice independently.

[3] = test system: Hep-G2 (human liver cancer); experiment: Cell proliferative assay (MTT), Hep-G2; type: cell-based; conditions: read-out: Proliferative Inhibition (IC50, µM) Hep-G2
Description: as §1

[4] = test system: HeLa (human cervical carcinoma); experiment: Cell proliferative assay (MTT), HeLa; type: cell-based; conditions: HeLa cells, read-out: Proliferative Inhibition (IC50, µM) HeLa
Description: as §1

[5] = Homo sapiens, HepG2, Hep-G2 cells

| IC50 ([1]; Homo sapiens, MCF7, MTT assay) [µM] | IC50 [2] [µM] | melting point [°C] | IC50 [3, 5] [µM] | IC50 ([4]; Homo sapiens, HeLa) [µM] | Compound | IC50 ([1]; MTT assay) [µM] | IC50 ([3]; Hep-G2 cells) [µM] | IC50 [4] [µM] |
| --- | --- | --- | --- | --- | --- | --- | --- | --- |
| 46.1 ± 0.8 | 8.4 ± 0.6 | 217 to 219 | 38.5 ± 1.3 | 28.7 ± 1.1 | COc1cc2ncnc(Oc3cccc(C(=O)Nc4cc(C(C)(C)C)nn4-c4ccccc4)c3)c2cc1OC [Compound 9a, N-(3-(tert-butyl)-1-phenyl-1H-pyrazol-5-yl)-3-((6,7-dimethoxyquinazolin-4-yl)oxy)benzamide] | – | – | – |
| 59.7 ± 1.3 | > 10 | – | > 100 | > 100 | CNC(=O)c1cc(Oc2cccc(C(=O)Nc3cc(C(C)(C)C)nn3-c3ccccc3)c2)ccn1 [Compound 9b] | – | – | – |
| 66.7 ± 1.5 | > 10 | – | > 100 | > 100 | CC(C)(C)OC(=O)N1CCc2c(sc3ncnc(Oc4cccc(C(=O)Nc5cc(C(C)(C)C)nn5-c5ccccc5)c4)c23)C1 [Compound 9c, tert-butyl 4-{3-((3-(tert-butyl)-1-phenyl-1H-pyrazol-5-yl)carbamoyl)phenoxy}-5,6-dihydropyrido(4’,3’:4,5)thieno(2,3-d)pyrimidine-7(8H)-carboxylate] | – | – | – |
| 3.4 ± 0.21 | 0.52 ± 0.05 | 220 to 222 | > 100 | 14.1 ± 0.16 | COc1ccc(NC(=O)c2cccc(Oc3ncnc4cc(OC)c(OC)cc34)c2)cc1OC [Compound 11a, N-(3,4-dimethoxyphenyl)-3-((6,7-dimethoxyquinazolin-4-yl)oxy)benzamide] | – | – | – |
| 7.8 ± 0.14 | 0.12 ± 0.03 | 203 to 205 | 9.2 ± 0.17 | 1.8 ± 0.06 | COc1cc2ncnc(Oc3cccc(C(=O)Nc4ccc(Cl)cc4)c3)c2cc1OC [Compound 11b, N-(4-chlorophenyl)-3-((6,7-dimethoxyquinazolin-4-yl)oxy)benzamide] | – | – | – |
| 5.2 ± 0.36 | 0.08 ± 0.04 | 178 to 180 | 10.1 ± 0.2 | 0.9 ± 0.12 | COc1cc2ncnc(Oc3cccc(C(=O)Nc4ccc(F)cc4)c3)c2cc1OC [Compound 11c, 3-((6,7-dimethoxyquinazolin-4-yl)oxy)-N-(4-fluorophenyl)benzamide] | – | – | – |
| 71.2 ± 0.34 | > 10 | – | > 100 | > 100 | CNC(=O)c1cc(Oc2cccc(C(=O)Nc3ccc(OC)c(OC)c3)c2)ccn1 [Compound 11d, 4-{3-((3,4-dimethoxyphenyl)carbamoyl)phenoxy}-N-methylpicolinamide] | – | – | – |
| 34.5 ± 0.36 | 7.4 ± 0.07 | – | > 100 | 26.4 ± 0.2 | CNC(=O)c1cc(Oc2cccc(C(=O)Nc3ccc(Cl)cc3)c2)ccn1 [Compound 11e, 4-{3-((4-chlorophenyl)carbamoyl)phenoxy}-N-methylpicolinamide] | – | – | – |
| 42.1 ± 0.27 | 5.3 ± 0.05 | – | > 100 | 27.8 ± 0.34 | CNC(=O)c1cc(Oc2cccc(C(=O)Nc3ccc(F)cc3)c2)ccn1 [Compound 11f, 4-{3-((4-fluorophenyl)carbamoyl)phenoxy}-N-methylpicolinamide] | – | – | – |
| 17.3 ± 0.38 | 1.4 ± 0.1 | 103 to 105 | > 100 | 4.4 ± 0.26 | COc1ccc(NC(=O)c2cccc(Oc3ncnc4sc5c(c34)CCN(C(=O)OC(C)(C)C)C5)c2)cc1OC [Compound 11g, tert-butyl 4-{3-((3,4-dimethoxyphenyl)carbamoyl)phenoxy}-5,6-dihydropyrido(4’,3’:4,5)thieno(2,3-d)pyrimidine-7(8H)-carboxylate] | – | – | – |
| 22.9 ± 0.22 | 0.25 ± 0.08 | – | 61.9 ± 0.23 | 10.7 ± 0.18 | CC(C)(C)OC(=O)N1CCc2c(sc3ncnc(Oc4cccc(C(=O)Nc5ccc(Cl)cc5)c4)c23)C1 [Compound 11h, tert-butyl 4-{3-((4-chlorophenyl)carbamoyl)phenoxy}-5,6-dihydropyrido(4’,3’:4,5)thieno(2,3-d)pyrimidine-7(8H)-carboxylate] | – | – | – |
| 1.1 ± 0.31 | 0.05 ± 0.02 | – | 23.2 ± 0.36 | 1.5 ± 0.11 | CC(C)(C)OC(=O)N1CCc2c(sc3ncnc(Oc4cccc(C(=O)Nc5ccc(F)cc5)c4)c23)C1 [Compound 11i, tert-butyl 4-{3-((4-fluorophenyl)carbamoyl)phenoxy}-5,6-dihydropyrido(4’,3’:4,5)thieno(2,3-d)pyrimidine-7(8H)-carboxylate] | – | – | – |
| 71.8 ± 0.31 | 7.1 ± 0.18 | 210 to 212 | > 100 | > 100 | COc1cc2ncnc(Oc3ccc(NC(=O)C(C)(C)C(=O)Nc4ccc(F)cc4)cc3F)c2cc1OC [Compound 13a, N^1-{4-((6,7-dimethoxyquinazolin-4-yl)oxy)-3-fluorophenyl}-N^3-(4-fluorophenyl)-2,2-dimethylmalonamide] | – | – | – |
| > 100 | 1.2 ± 0.06 | 250 to 252 | 49.1 ± 0.3 | 50.1 ± 0.25 | COc1cc2ncnc(Oc3ccc(NC(=O)C4(C(=O)Nc5ccc(F)cc5)CCC4)cc3F)c2cc1OC [Compound 13c, N-{4-((6,7-dimethoxyquinazolin-4-yl)oxy)-3-fluorophenyl}-N-(4-fluorophenyl)cyclobutane-1,1-dicarboxamide] | – | – | – |
| 91.2 ± 0.26 | > 10 | 113 to 115 | > 100 | > 100 | CNC(=O)c1cc(Oc2ccc(NC(=O)C(C)(C)C(=O)Nc3ccc(F)cc3)cc2)ccn1 [Compound 13d, N^1-(4-fluorophenyl)-2,2-dimethyl-N^3-{4-((2-(methylcarbamoyl)pyridin-4-yl)oxy]phenyl}malonamide] | – | – | – |
| 27.7 ± 0.35 | 9.4 ± 0.6 | 126 to 128 | > 100 | > 100 | CC(C)(C)OC(=O)N1CCc2c(sc3ncnc(Oc4ccc(NC(=O)C(C)(C)C(=O)Nc5ccc(F)cc5)cc4F)c23)C1 [Compound 13g, tert-butyl-4-{2-fluoro-4-(3-((4-fluorophenyl)amino)-2,2-dimethyl-3-oxopropanamido)phenoxy}-5,6-dihydropyrido(4’,3’:4,5)thieno(2,3-d)pyrimidine-7(8H)-carboxylate] | – | – | – |
| 21.7 ± 0.16 | 0.25 ± 0.08 | 101 to 103 | 43.2 ± 0.26 | 4.2 ± 0.31 | CC(C)(C)OC(=O)N1CCc2c(sc3ncnc(Oc4ccc(NC(=O)C5(C(=O)Nc6ccc(F)cc6)CCC5)cc4F)c23)C1 [Compound 13i, tert-butyl-4-{2-fluoro-4-(1-((4-fluorophenyl)carbamoyl)cyclobutanecarboxamido)phenoxy}-5,6-dihydropyrido(4’,3’:4,5)thieno(2,3-d)pyrimidine-7(8H)-carboxylate] | – | – | – |

| Compound | IC50 ([1]; Homo sapiens, MCF7, MTT assay) [µM] | IC50 [2] [µM] | melting point [°C] | IC50 [3, 5] [µM] | IC50 ([4]; Homo sapiens, HeLa) [µM] | IC50 ([1]; MTT assay) [µM] | IC50 ([3]; Hep-G2 cells) [µM] | IC50 [4] [µM] |
| --- | --- | --- | --- | --- | --- | --- | --- | --- |
| N-(4-fluorophenyl)-N-{4-((2-(methylcarbamoyl)pyridin-4-yl)oxy)phenyl}cyclobutane-1,1-dicarboxamide [Compound 13f] | – | > 10 | – | – | – | > 100 | > 100 | 87.8 ± 0.13 |
| N-(4-fluorophenyl)-N-{4-((2-(methylcarbamoyl)pyridin-4-yl)oxy)phenyl}cyclopropane-1,1-dicarboxamide [Compound 13e] | – | > 10 | – | – | – | > 100 | > 100 | 66.7 ± 0.36 |

— PMC6272887, “Discovery of Potent c-MET Inhibitors with New Scaffold Having Different Quinazoline, Pyridine and Tetrahydro-Pyridothienopyrimidine Headgroups” (Molecules, 2016)
